Among the data in US7323480B2, “Substituted triazoles as modulators of PPAR and methods of their preparation” (Metabolex, Inc., priority 2004, dated 2008) are EC50 values, retold here.

Common to all, as to assay type: cell-based
Experiment [1] addresses T1, mouse PPARγ (Mus musculus, UniProt P37238).
T1 construct: expressed in transfected cells; host or cells: HEK293T
T1 sequence (P37238 238-503 limits assumed): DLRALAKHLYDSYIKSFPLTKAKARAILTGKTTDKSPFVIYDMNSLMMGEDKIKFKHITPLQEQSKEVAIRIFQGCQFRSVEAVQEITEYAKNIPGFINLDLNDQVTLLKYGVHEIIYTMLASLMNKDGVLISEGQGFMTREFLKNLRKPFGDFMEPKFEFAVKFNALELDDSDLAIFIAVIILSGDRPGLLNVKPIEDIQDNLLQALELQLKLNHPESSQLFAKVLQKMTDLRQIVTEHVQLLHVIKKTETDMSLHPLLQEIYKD
As to the kind of experiment: PPARγ transactivation (GAL4 chimera luciferase gene activation) assay. To be noted: GAL4 DNA binding domain-PPARγ ligand binding domain chimera, pFR-Luc reporter, HEK293T cells, 20 hours incubation. The source says:
(§1) Measurement of PPARγ, δ, and α Transactivation Activity
(§2) Chimeric receptors were constructed in which the yeast transcription factor GAL4 DNA binding domain was fused to the ligand binding domain of either mouse PPARγ, mouse PPAR δ or mouse PPAR α in order to assess the ability of the compounds of the present invention to activate gene expression in a PPAR-dependent manner. The chimeric receptor expression plasmids (GAL4-nPPARγ, GAL4-mPPAR δ and GAL4-PPAR α) and the reporter plasmid containing 5×GAL4 binding site (pFR-Luc, obtained from Stratagene) were transfected into HEK293T cells using the Lipofectamine 2000 reagent (Invitrogen), according to the manufacturers instructions. Six hours after transfection, the culture medium was renewed and the cells were incubated for 20 hours in presence of either 1) DMSO (vehicle), 2) a compound of the invention or 3) a reference compound for comparison. Rosiglitazone (obtained from WDF Pharma) was used as a reference compound for the PPARγ assay; GW501516 (prepared as described in Sznaidman et al. Bioorg. Med. Chem. Lett. (2003) 13:1517-1521) was used as a reference compound for the PPAR δ assay and GW7647 (obtained from Sigma) was used as a reference compound for the PPAR α assay. Luciferase activity was measured as a reporter of gene expression. Luciferase activity on the cell lysates using the Steady-Glo reagent was measured according to the manufacturers instructions.

Experiment [2] has as its target T2, mouse PPAR α (Mus musculus, UniProt P23204).
T2 construct: expressed in transfected cells; host or cells: HEK293T
T2 sequence (P23204 239-466 limits assumed): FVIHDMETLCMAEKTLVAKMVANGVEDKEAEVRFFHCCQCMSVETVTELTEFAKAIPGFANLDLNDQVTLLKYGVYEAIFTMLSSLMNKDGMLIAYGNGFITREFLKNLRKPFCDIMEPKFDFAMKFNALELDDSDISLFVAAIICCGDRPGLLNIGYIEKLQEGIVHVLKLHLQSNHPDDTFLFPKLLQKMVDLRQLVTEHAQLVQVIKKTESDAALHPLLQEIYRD
As to the kind of experiment: PPAR α transactivation (GAL4 chimera luciferase gene activation) assay. To be noted: GAL4 DNA binding domain-PPAR α ligand binding domain chimera, pFR-Luc reporter, HEK293T cells, 20 hours incubation; read-out: Gene Activation Assay: EC50 PPAR alpha.
Text: as §1, §2

In experiment [3] the target is T3, mouse PPAR δ (Mus musculus, UniProt P35396).
T3 construct: expressed in transfected cells; host or cells: HEK293T
T3 sequence (P35396 210-438 limits assumed): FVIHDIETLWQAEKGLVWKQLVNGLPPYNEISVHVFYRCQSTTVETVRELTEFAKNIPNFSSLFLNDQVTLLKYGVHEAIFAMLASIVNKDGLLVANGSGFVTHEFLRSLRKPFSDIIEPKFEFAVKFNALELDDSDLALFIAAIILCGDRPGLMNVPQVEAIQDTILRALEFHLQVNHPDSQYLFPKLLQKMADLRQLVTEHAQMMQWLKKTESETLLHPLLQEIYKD
In words: PPAR δ transactivation (GAL4 chimera luciferase gene activation) assay. To be noted: GAL4 DNA binding domain-PPAR δ ligand binding domain chimera, pFR-Luc reporter, HEK293T cells, 20 hours incubation; read-out: Gene Activation Assay: EC50 PPAR delta.
Text: as §1, §2

Setting [4] is: read-out: Gene Activation Assay: EC50 PPAR gamma.

pEC50: −log10 of the molar value. Read-outs that look alike come from different tables or passages of the source.

Turning to `Cc1cc(SCc2nn(-c3ccc(C(F)(F)F)cc3)nc2C)ccc1OCC(=O)O` [Compound 100, {2-Methyl-4-[5-methyl-2-(4-trifluoromethyl-phenyl)-2H-[1,2,3]triazol-4-ylmethylsulfanyl]-phenoxy}-acetic acid], the results for the pEC50 in experiment [1] (setting [4]), in experiment [2] and in experiment [3] were less than 4.52, less than 5.00 and not below 5.00, respectively.
The matching figures for `Cc1cc(SCc2nn(-c3ccc(C(F)(F)F)cc3)nc2C)ccc1OC(C)C(=O)O` (stereo not drawn) [Compound 110, 2-{2-Methyl-4-[5-methyl-2-(4-trifluoromethyl-phenyl)-2H-[1,2,3]triazol-4-ylmethylsulfanyl]-phenoxy}-propionic acid]: not below 5.00, not below 5.00 and not below 5.00.
Take `Cc1cc(SCc2nn(-c3ccc(C(F)(F)F)cc3)nc2C)ccc1OC(C)(C)C(=O)O` [Compound 210, 2-Methyl-2-{2-methyl-4-[5-methyl-2-(4-trifluoromethyl-phenyl)-2H-[1,2,3]triazol-4-ylmethylsulfanyl]-phenoxy}-propionic acid]: the pEC50 in experiment [1] (read-out: Gene Activation Assay: EC50 PPAR gamma (number printed instead of a symbol)) was 5.00; in experiment [2], not below 5.00; in experiment [3], not below 5.00.
In the case of `Cc1cc(SCc2nn(-c3ccc(C(F)(F)F)cc3)nc2C(C)C)ccc1OCC(=O)O` [Compound 320, {4-[5-Isopropyl-2-(4-trifluoromethyl-phenyl)-2H-[1,2,3]triazol-4-ylmethylsulfanyl]-2-methyl-phenoxy}-acetic acid], the pEC50 is less than 4.52 in experiment [1] (setting [4]), less than 5.00 in experiment [2] and not below 5.00 in experiment [3].
The matching figures for `Cc1cc(SCc2nn(-c3ccc(C(F)(F)F)cc3)nc2-c2ccccc2)ccc1OCC(=O)O` [Compound 340, {2-Methyl-4-[5-phenyl-2-(4-trifluoromethyl-phenyl)-2H-[1,2,3]triazol-4-ylmethylsulfanyl]-phenoxy}-acetic acid]: less than 4.52, not below 5.00 and not below 5.00.
The matching figures for `Cc1cc(SCc2nn(-c3ccc(C(F)(F)F)cc3)nc2C(F)(F)F)ccc1OCC(=O)O` [Compound 360, {2-Methyl-4-[5-trifluoromethyl-2-(4-trifluoromethyl-phenyl)-2H-[1,2,3]triazol-4-ylmethylsulfanyl]-phenoxy}-acetic acid]: less than 4.52, less than 5.00 and not below 5.00.
Take `COc1ccc(-n2nc(C)c(CSc3ccc(OCC(=O)O)c(C)c3)n2)cc1` [Compound 440, {4-[2-(4-Methoxy-phenyl)-5-methyl-2H-[1,2,3]triazol-4-ylmethylsulfanyl]-2-methyl-phenoxy}-acetic acid]: the pEC50 in experiment [1] (setting [4]) was less than 5.00; in experiment [2], less than 5.00; in experiment [3], not below 5.00.
In the case of `Cc1cc(SCc2nn(-c3cccc(C(F)(F)F)c3)nc2C)ccc1OCC(=O)O` [Compound 480, {2-Methyl-4-[5-methyl-2-(3-trifluoromethyl-phenyl)-2H-[1,2,3]triazol-4-ylmethylsulfanyl]-phenoxy}-acetic acid], the pEC50 in experiment [1] (setting [4]) is less than 5.00; in experiment [2] it was not below 5.00; in experiment [3], not below 5.00.
Consider `Cc1cc(SCCc2nn(-c3ccc(C(F)(F)F)cc3)nc2C)ccc1OCC(=O)O` [Compound 580, (2-Methyl-4-{2-[5-methyl-2-(4-trifluoromethyl-phenyl)-2H-[1,2,3]triazol-4-yl]-ethylsulfanyl}-phenoxy)-acetic acid], for which the pEC50 is less than 4.52 in experiment [1] (setting [4]), not below 5.00 in experiment [2] and not below 5.00 in experiment [3].
Consider `Cc1cc(SCc2nn(-c3ccc(Cl)c(Cl)c3)nc2C)ccc1OCC(=O)O` [Compound 640, {4-[2-(3,4-Dichloro-phenyl)-5-methyl-2H-[1,2,3]triazol-4-ylmethylsulfanyl]-2-methyl-phenoxy}-acetic acid], for which the pEC50 was less than 4.52 in experiment [1] (setting [4]), less than 5.00 in experiment [2] and not below 5.00 in experiment [3].
For `CCCc1cc(CC(=O)O)ccc1OCc1nn(-c2ccc(C(F)(F)F)cc2)nc1C` [Compound 660, {3-Propyl-4-[5-methyl-2-(4-trifluoromethyl-phenyl)-2H-[1,2,3]triazol-4-ylmethoxy]-phenyl}-acetic acid], the pEC50 in experiment [1] (setting [4]) is less than 4.52; in experiment [2], less than 4.52; in experiment [3], not below 5.00.
Take `Cc1nn(-c2ccc(C(F)(F)F)cc2)nc1COc1ccc(CC(=O)O)cc1` [Compound 670]: the pEC50 was less than 4.52 in experiment [1] (setting [4]), less than 5.00 in experiment [2] and not below 5.00 in experiment [3].
